Patent publication US9376371B2, “Triphenylamine derivative, method for manufacturing the same, and electrophotographic photosensitive member” (KYOCERA DOCUMENT SOLUTIONS INC., priority 2013, dated 2016)

Legend:
[1] = Evaluation of solubility in tetrahydrofuran; format: physicochemical; conditions: 25° C., {100/(100+X)}×100
Description: The thus obtained triphenylamine derivatives HTM-1 to HTM-14 each as the hole transport material were evaluated for the solubility. A small amount of tetrahydrofuran was added to 100 mg of each triphenylamine derivative under the temperature of 25° C. Then, the resulting sample was vibrated and left to stand. This process was repeated to measure the added amount X (mg) of tetrahydrofuran dissolved in the triphenylamine derivative to saturation. With the added amount X, the equation below gives the solubility. Solubility (%)={100/(100+X)}×100 <Evaluation of Ionization Potentials>

[2] = Evaluation of ionization potential (AC-1 ultraviolet photoelectron analyzer); format: physicochemical; conditions: atmosphere type ultraviolet photoelectron analyzing apparatus AC-1
Text: The respective triphenylamine derivatives HTM-1 to HTM-14 were each evaluated for the ionization potential. An atmosphere type ultraviolet photoelectron analyzing apparatus (AC-1 manufactured by Riken Keiki Co., Ltd.) was used to measure the ionization potential.

Structure (SMILES)	THF Solubility [1] [%]	Ionization Potential [2] [eV]
COc1ccc(N(c2ccc(/C=C/C=C/c3ccccc3)cc2)c2ccc(/C=C/C=C/c3ccccc3)cc2)c(C)c1 [HTM-6]	24.5	5.38
COc1cccc(N(c2ccc(/C=C/C=C/c3ccccc3)cc2)c2ccc(/C=C/C=C/c3ccccc3)cc2)c1 [HTM-13]	6.1	5.45
COc1ccc(N(c2ccc(/C=C/C=C/c3ccccc3)cc2)c2ccc(/C=C/C=C/c3ccccc3)cc2)cc1 [HTM-12]	7.5	5.43
Cc1ccc(N(c2ccc(/C=C/C=C/c3ccccc3)cc2)c2ccc(/C=C/C=C/c3ccccc3)cc2)c(C)c1 [HTM-9]	12.3	5.46
CCOc1ccccc1N(c1ccc(/C=C/C=C/c2ccccc2)cc1)c1ccc(/C=C/C=C/c2ccccc2)cc1 [HTM-1]	25.0	5.38
CCCCc1ccc(N(c2ccc(/C=C/C=C/c3ccccc3)cc2)c2ccc(/C=C/C=C/c3ccccc3)cc2)cc1 [HTM-10]	17.8	5.42
COc1ccc(N(c2ccc(/C=C/C=C/c3ccccc3)cc2)c2ccc(/C=C/C=C/c3ccccc3)cc2)c(OC)c1 [HTM-5]	20.0	5.33
CCOc1ccc(N(c2ccc(/C=C/C=C/c3ccccc3)cc2)c2ccc(/C=C/C=C/c3ccccc3)cc2)c(C)c1 [HTM-7]	25.8	5.39
COc1ccccc1N(c1ccc(/C=C/C=C/c2ccccc2)cc1)c1ccc(/C=C/C=C/c2ccccc2)cc1 [HTM-14]	6.3	5.43
CCOc1cc(C)ccc1N(c1ccc(/C=C/C=C/c2ccccc2)cc1)c1ccc(/C=C/C=C/c2ccccc2)cc1 [HTM-4]	22.8	5.39
CCOc1cccc(C)c1N(c1ccc(/C=C/C=C/c2ccccc2)cc1)c1ccc(/C=C/C=C/c2ccccc2)cc1 [HTM-2]	23.5	5.37
CCCCOc1ccccc1N(c1ccc(/C=C/C=C/c2ccccc2)cc1)c1ccc(/C=C/C=C/c2ccccc2)cc1 [HTM-3]	24.1	5.39
C(/C=C/c1ccc(N(c2ccc(/C=C/C=C/c3ccccc3)cc2)c2ccc(Oc3ccccc3)cc2)cc1)=C\c1ccccc1 [HTM-8]	21.0	5.48
Cc1cccc(C)c1N(c1ccc(/C=C/C=C/c2ccccc2)cc1)c1ccc(/C=C/C=C/c2ccccc2)cc1 [HTM-11]	11.4	5.55
